How the values were obtained:
[1] = Inhibition of Protein kinase A
[2] = target: Cyclin-dependent kinase 4/cyclin D1 (Homo sapiens, UniProt P11802); experiment: Inhibition of Cyclin D1-cyclin-dependent kinase 4; format: protein-complex assay
HCT-116 = experiment: Antiproliferative activity was tested in human HCT116 (colon) cell line; format: functional, cell-based
[3] = target: Cyclin-dependent kinase 2/cyclin E (Homo sapiens, UniProt P24941); experiment: Inhibition of Cyclin E-cyclin-dependent kinase 2; format: protein-complex assay

Sequence of Cyclin-dependent kinase 4/cyclin D1 (P11802 whole entry): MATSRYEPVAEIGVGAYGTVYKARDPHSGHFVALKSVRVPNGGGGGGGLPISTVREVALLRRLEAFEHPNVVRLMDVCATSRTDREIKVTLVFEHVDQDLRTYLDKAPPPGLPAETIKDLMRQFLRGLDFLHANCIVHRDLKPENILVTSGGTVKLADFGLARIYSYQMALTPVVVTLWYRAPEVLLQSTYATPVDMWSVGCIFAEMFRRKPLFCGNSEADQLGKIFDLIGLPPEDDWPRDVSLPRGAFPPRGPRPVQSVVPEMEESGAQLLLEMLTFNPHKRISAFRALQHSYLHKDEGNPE
Sequence of Cyclin-dependent kinase 4/cyclin D1 (P24385 whole entry, further chain): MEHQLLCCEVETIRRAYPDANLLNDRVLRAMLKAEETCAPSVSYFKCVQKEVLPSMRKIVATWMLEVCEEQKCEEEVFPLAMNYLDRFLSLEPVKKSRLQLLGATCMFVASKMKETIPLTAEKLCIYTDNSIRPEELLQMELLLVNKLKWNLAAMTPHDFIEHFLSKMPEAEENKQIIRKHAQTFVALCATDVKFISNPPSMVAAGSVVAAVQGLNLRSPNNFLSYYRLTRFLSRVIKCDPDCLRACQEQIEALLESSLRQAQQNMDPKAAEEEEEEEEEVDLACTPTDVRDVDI

Compound	IC50 [1] [nM]	IC50 [2] [nM]	IC50 (HCT-116) [nM]	IC50 [3] [nM]
Cc1cn(S(=O)(=O)N2CCn3c4c(cccc4c4c5c(c6c7ccccc7[nH]c6c43)C(=O)NC5=O)C2)cn1	> 2000	120	> 10000	
CS(=O)(=O)N1CCn2c3c(cccc3c3c4c(c5c6ccccc6[nH]c5c32)C(=O)NC4=O)C1	> 2000	50	1600	> 200
CC(C)N1CCn2c3c(cccc3c3c4c(c5c6ccccc6[nH]c5c32)C(=O)NC4=O)C1	> 2000	70	640	780
NCC(=O)N1CCn2c3c(cccc3c3c4c(c5c6ccccc6[nH]c5c32)C(=O)NC4=O)C1	> 20000		> 10000	
O=C1NC(=O)c2c1c1c3ccc(C(F)(F)F)c(CO)c3[nH]c1c1c2c2cccc3c2n1CCNC3		40	3500	
O=C1NC(=O)c2c1c1c3cc(F)ccc3[nH]c1c1c2c2cccc3c2n1CCNC3	200	30	260	> 200
O=C1NC(=O)c2c1c1c3ccc(C(F)(F)F)cc3[nH]c1c1c2c2cccc3c2n1CCNC3	> 2000	60	170	210
O=C1NC(=O)c2c1c1c3ccccc3[nH]c1c1c2c2cccc3c2n1CCCCNC3	40	80	90	200
O=C1NC(=O)c2c1c1c3cc(F)c(F)cc3[nH]c1c1c2c2cccc3c2n1CCNC3	> 2000		400	> 200
O=C1NC(=O)c2c1c1c3ccccc3[nH]c1c1c2c2cccc3c2n1CCNC3	160	27	310	30
O=C1NC(=O)c2c1c1c3ccc(F)cc3[nH]c1c1c2c2cccc3c2n1CCNC3	430	30	200	10
